# Values joined by “and” are separate entries in the source; they are usually repeats but may differ in a detail not shown here. Identical values can stand only once. Inconclusive results are not listed.
# System: Lewis lung carcinoma i.m., BDF1 mice, T/C %
# Test: NCI In Vivo Anticancer Drug Screen. Data for tumor model Lewis Lung Carcinoma (intramuscular) in B6D2F1 (BDF1) mice
# Summary of the method: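 Mice carrying transplantable tumours received test compound. Survival or tumour size was recorded and expressed as the treated-group value (T) divided by the vehicle-treated control-group value (C).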
# [1] = endpoint: mean tumor weight, dose: 50.0 mg/kg/injection, schedule: Q01DX011 (ip), vehicle: saline, higher = larger tumour
structure (smiles),measurement,setting,value
O=c1[nH]c(=O)n(C2CC(O)C(CO)O2)cc1F (centres undefined),T/C,"endpoint: mean tumor weight, dose: 10.0 mg/kg/injection, schedule: Q01DX009 (ip), vehicle: saline, higher = larger tumour",59 % of control
same,T/C,"endpoint: mean tumor weight, dose: 10.0 mg/kg/injection, schedule: Q01DX011 (ip), vehicle: other, higher = larger tumour",83 % of control
same,T/C,"endpoint: mean tumor weight, dose: 20.0 mg/kg/injection, schedule: Q01DX009 (ip), vehicle: saline, higher = larger tumour",72 % of control
same,T/C,"endpoint: mean tumor weight, dose: 20.0 mg/kg/injection, schedule: Q01DX011 (ip), vehicle: other, higher = larger tumour",29 % of control
same,T/C,"endpoint: mean tumor weight, dose: 20.0 mg/kg/injection, schedule: Q01DX011 (ip), vehicle: saline, higher = larger tumour",31 % of control and 42 % of control
same,T/C,"endpoint: mean tumor weight, dose: 25.0 mg/kg/injection, schedule: Q01DX011 (ip), vehicle: saline, higher = larger tumour",58 % of control
same,T/C,"endpoint: mean tumor weight, dose: 40.0 mg/kg/injection, schedule: Q01DX009 (ip), vehicle: saline, higher = larger tumour",65 % of control
same,T/C,"endpoint: mean tumor weight, dose: 40.0 mg/kg/injection, schedule: Q01DX011 (ip), vehicle: saline, higher = larger tumour",10 % of control and 17 % of control
same,T/C,[1],18 % of control
same,T/C,"endpoint: mean tumor weight, dose: 80.0 mg/kg/injection, schedule: Q01DX009 (ip), vehicle: saline, higher = larger tumour",16 % of control
same,T/C,"endpoint: mean tumor weight, dose: 80.0 mg/kg/injection, schedule: Q01DX011 (ip), vehicle: other, higher = larger tumour",4 % of control
same,T/C,"endpoint: mean tumor weight, dose: 80.0 mg/kg/injection, schedule: Q01DX011 (ip), vehicle: saline, higher = larger tumour",7 % of control
same,T/C,"endpoint: mean tumor weight, dose: 100.0 mg/kg/injection, schedule: Q01DX011 (ip), vehicle: saline, higher = larger tumour",3 % of control
same,T/C,"endpoint: median survival time, dose: 10.0 mg/kg/injection, schedule: Q01DX011 (ip), vehicle: other, higher = longer survival",98 % of control
same,T/C,"endpoint: median survival time, dose: 10.0 mg/kg/injection, schedule: Q01DX011 (ip), vehicle: saline, higher = longer survival",107 % of control and 120 % of control
same,T/C,"endpoint: median survival time, dose: 19.0 mg/kg/injection, schedule: Q01DX007 (sc), vehicle: saline, higher = longer survival",100 % of control
same,T/C,"endpoint: median survival time, dose: 20.0 mg/kg/injection, schedule: Q01DX011 (ip), vehicle: other, higher = longer survival",108 % of control
same,T/C,"endpoint: median survival time, dose: 20.0 mg/kg/injection, schedule: Q01DX011 (ip), vehicle: saline, higher = longer survival",91 % of control and 112 % of control and 123 % of control
same,T/C,"endpoint: median survival time, dose: 20.0 mg/kg/injection, schedule: Q01DX011 (ip), vehicle: water, higher = longer survival",105 % of control
same,T/C,"endpoint: median survival time, dose: 25.0 mg/kg/injection, schedule: Q01DX011 (ip), vehicle: saline, higher = longer survival",108 % of control
same,T/C,"endpoint: median survival time, dose: 31.0 mg/kg/injection, schedule: Q01DX007 (sc), vehicle: saline, higher = longer survival",121 % of control
same,T/C,"endpoint: median survival time, dose: 40.0 mg/kg/injection, schedule: Q01DX009 (ip), vehicle: saline, higher = longer survival",114 % of control and 115 % of control
same,T/C,"endpoint: median survival time, dose: 40.0 mg/kg/injection, schedule: Q01DX011 (ip), vehicle: saline, higher = longer survival",97 % of control and 100 % of control
same,T/C,"endpoint: median survival time, dose: 40.0 mg/kg/injection, schedule: Q01DX011 (ip), vehicle: water, higher = longer survival",113 % of control
same,T/C,"endpoint: median survival time, dose: 50.0 mg/kg/injection, schedule: Q01DX009 (ip), vehicle: saline, higher = longer survival",101 % of control
same,T/C,"endpoint: median survival time, dose: 80.0 mg/kg/injection, schedule: Q01DX009 (ip), vehicle: saline, higher = longer survival",124 % of control
same,T/C,"endpoint: median survival time, dose: 80.0 mg/kg/injection, schedule: Q01DX011 (ip), vehicle: saline, higher = longer survival",153 % of control
same,T/C,"endpoint: median survival time, dose: 80.0 mg/kg/injection, schedule: Q01DX011 (ip), vehicle: water, higher = longer survival",121 % of control
same,T/C,"endpoint: median survival time, dose: 86.0 mg/kg/injection, schedule: Q01DX007 (sc), vehicle: saline, higher = longer survival",121 % of control
COc1cc([C@@H]2c3cc4c(c(O)c3C[C@H]3COC(=O)[C@@H]32)OCO4)cc(OC)c1OC,T/C,"endpoint: mean tumor weight (est.), dose: 0.5 mg/kg/injection, schedule: Q01DX011 (ip), vehicle: Klucel (hydroxypropylcellulose) (HPC), higher = larger tumour",106 % of control
same,T/C,"endpoint: mean tumor weight (est.), dose: 2.0 mg/kg/injection, schedule: Q01DX011 (ip), vehicle: Klucel (hydroxypropylcellulose) (HPC), higher = larger tumour",93 % of control
CN(Cc1ccccc1)/N=N/c1nc[nH]c1C(N)=O,T/C,[1],64 % of control
same,T/C,"endpoint: median survival time, dose: 50.0 mg/kg/injection, schedule: Q01DX011 (ip), vehicle: saline, higher = longer survival",91 % of control
COc1cc2c(c(OC)c1OC)-c1ccc(OC)c(=O)cc1[C@@H](NC=O)CC2,T/C,"endpoint: mean tumor weight (est.), dose: 0.25 mg/kg/injection, schedule: Q01DX011 (ip), vehicle: saline, higher = larger tumour",90 % of control
same,T/C,"endpoint: mean tumor weight (est.), dose: 0.5 mg/kg/injection, schedule: Q01DX011 (ip), vehicle: saline, higher = larger tumour",73 % of control
same,T/C,"endpoint: mean tumor weight (est.), dose: 1.0 mg/kg/injection, schedule: Q01DX011 (ip), vehicle: saline, higher = larger tumour",49 % of control
same,T/C,"endpoint: median survival time, dose: 0.25 mg/kg/injection, schedule: Q01DX011 (ip), vehicle: saline, higher = longer survival",90 % of control
same,T/C,"endpoint: median survival time, dose: 0.5 mg/kg/injection, schedule: Q01DX011 (ip), vehicle: saline, higher = longer survival",116 % of control
same,T/C,"endpoint: median survival time, dose: 1.0 mg/kg/injection, schedule: Q01DX011 (ip), vehicle: saline, higher = longer survival",88 % of control
O=C(Nc1ccc(S(=O)(=O)O)cc1)c1ccc([N+](=O)[O-])cc1,T/C,"endpoint: mean tumor weight (est.), dose: 3.5 mg/kg/injection, schedule: Q01DX011 (ip), vehicle: saline, higher = larger tumour",87 % of control
same,T/C,"endpoint: mean tumor weight (est.), dose: 7.0 mg/kg/injection, schedule: Q01DX011 (ip), vehicle: saline, higher = larger tumour",120 % of control
same,T/C,"endpoint: mean tumor weight (est.), dose: 14.0 mg/kg/injection, schedule: Q01DX011 (ip), vehicle: saline, higher = larger tumour",94 % of control
same,T/C,"endpoint: mean tumor weight (est.), dose: 28.0 mg/kg/injection, schedule: Q01DX011 (ip), vehicle: saline, higher = larger tumour",82 % of control
same,T/C,"endpoint: median survival time, dose: 3.5 mg/kg/injection, schedule: Q01DX011 (ip), vehicle: saline, higher = longer survival",92 % of control
same,T/C,"endpoint: median survival time, dose: 7.0 mg/kg/injection, schedule: Q01DX011 (ip), vehicle: saline, higher = longer survival",96 % of control
same,T/C,"endpoint: median survival time, dose: 14.0 mg/kg/injection, schedule: Q01DX011 (ip), vehicle: saline, higher = longer survival",105 % of control
same,T/C,"endpoint: median survival time, dose: 28.0 mg/kg/injection, schedule: Q01DX011 (ip), vehicle: saline, higher = longer survival",117 % of control
CC[n+]1ccc(Nc2ccc(NC(=O)c3ccc(Nc4cc[n+](CC)c5ccc(N)cc45)cc3)cc2)cc1,T/C,"endpoint: mean tumor weight, dose: 0.12 mg/kg/injection, schedule: Q01DX011 (ip), vehicle: water, higher = larger tumour",109 % of control
same,T/C,"endpoint: mean tumor weight, dose: 0.25 mg/kg/injection, schedule: Q01DX011 (ip), vehicle: water, higher = larger tumour",83 % of control
same,T/C,"endpoint: mean tumor weight, dose: 0.5 mg/kg/injection, schedule: Q01DX011 (ip), vehicle: water, higher = larger tumour",87 % of control
same,T/C,"endpoint: mean tumor weight, dose: 1.0 mg/kg/injection, schedule: Q01DX011 (ip), vehicle: water, higher = larger tumour",100 % of control
same,T/C,"endpoint: mean tumor weight, dose: 2.0 mg/kg/injection, schedule: Q01DX011 (ip), vehicle: water, higher = larger tumour",67 % of control
same,T/C,"endpoint: median survival time, dose: 0.12 mg/kg/injection, schedule: Q01DX011 (ip), vehicle: water, higher = longer survival",88 % of control
same,T/C,"endpoint: median survival time, dose: 0.25 mg/kg/injection, schedule: Q01DX011 (ip), vehicle: water, higher = longer survival",88 % of control
same,T/C,"endpoint: median survival time, dose: 0.5 mg/kg/injection, schedule: Q01DX011 (ip), vehicle: water, higher = longer survival",92 % of control
same,T/C,"endpoint: median survival time, dose: 0.88 mg/kg/injection, schedule: Q01DX007 (sc), vehicle: saline, higher = longer survival",87 % of control
same,T/C,"endpoint: median survival time, dose: 1.0 mg/kg/injection, schedule: Q01DX011 (ip), vehicle: water, higher = longer survival",104 % of control
same,T/C,"endpoint: median survival time, dose: 1.5 mg/kg/injection, schedule: Q01DX007 (sc), vehicle: saline, higher = longer survival",110 % of control
same,T/C,"endpoint: median survival time, dose: 2.0 mg/kg/injection, schedule: Q01DX011 (ip), vehicle: water, higher = longer survival",106 % of control
same,T/C,"endpoint: median survival time, dose: 2.5 mg/kg/injection, schedule: Q01DX007 (sc), vehicle: saline, higher = longer survival",112 % of control
same,T/C,"endpoint: median survival time, dose: 4.1 mg/kg/injection, schedule: Q01DX007 (sc), vehicle: saline, higher = longer survival",89 % of control
same,T/C,"endpoint: median survival time, dose: 6.8 mg/kg/injection, schedule: Q01DX007 (sc), vehicle: saline, higher = longer survival",66 % of control
C[C@@H]1O[C@@H](O[C@H]2CC[C@]3(C=O)[C@H]4CC[C@]5(C)[C@@H](c6ccc(=O)oc6)CC[C@]5(O)[C@@H]4CC[C@]3(O)C2)[C@H](O)[C@H](O)[C@H]1O[C@@H]1O[C@H](CO)[C@@H](O)[C@H](O)[C@H]1O,T/C,"endpoint: mean tumor weight (est.), dose: 0.63 mg/kg/injection, schedule: Q01DX011 (ip), vehicle: saline, higher = larger tumour",80 % of control
same,T/C,"endpoint: mean tumor weight (est.), dose: 1.25 mg/kg/injection, schedule: Q01DX011 (ip), vehicle: saline, higher = larger tumour",89 % of control
same,T/C,"endpoint: median survival time, dose: 0.63 mg/kg/injection, schedule: Q01DX011 (ip), vehicle: saline, higher = longer survival",108 % of control
same,T/C,"endpoint: median survival time, dose: 1.25 mg/kg/injection, schedule: Q01DX011 (ip), vehicle: saline, higher = longer survival",98 % of control
CC(=O)Nc1cc(F)c([N+](=O)[O-])cc1[N+](=O)[O-],T/C,"endpoint: median survival time, dose: 1.25 mg/kg/injection, schedule: Q01DX011 (ip), vehicle: saline with Tween-80, higher = longer survival",108 % of control
same,T/C,"endpoint: median survival time, dose: 2.5 mg/kg/injection, schedule: Q01DX011 (ip), vehicle: saline with Tween-80, higher = longer survival",104 % of control
same,T/C,"endpoint: median survival time, dose: 5.0 mg/kg/injection, schedule: Q01DX011 (ip), vehicle: saline with Tween-80, higher = longer survival",95 % of control
same,T/C,"endpoint: median survival time, dose: 10.0 mg/kg/injection, schedule: Q01DX011 (ip), vehicle: saline with Tween-80, higher = longer survival",113 % of control
N=c1ccn2c(n1)OC1C(O)C(CO)OC12 (centres undefined),T/C,"endpoint: mean tumor weight, dose: 200.0 mg/kg/injection, schedule: Q01DX011 (ip), vehicle: water, higher = larger tumour",34 % of control
same,T/C,"endpoint: mean tumor weight, dose: 400.0 mg/kg/injection, schedule: Q01DX011 (ip), vehicle: water, higher = larger tumour",64 % of control
same,T/C,"endpoint: median survival time, dose: 200.0 mg/kg/injection, schedule: Q01DX011 (ip), vehicle: water, higher = longer survival",115 % of control
same,T/C,"endpoint: median survival time, dose: 400.0 mg/kg/injection, schedule: Q01DX011 (ip), vehicle: water, higher = longer survival",124 % of control
Cn1c(Cl)nc2c(Cl)nc(Cl)nc21,T/C,"endpoint: median survival time, dose: 1.0 mg/kg/injection, schedule: Q01DX011 (ip), vehicle: saline with Tween-80, higher = longer survival",102 % of control
same,T/C,"endpoint: median survival time, dose: 2.0 mg/kg/injection, schedule: Q01DX011 (ip), vehicle: saline with Tween-80, higher = longer survival",106 % of control
same,T/C,"endpoint: median survival time, dose: 4.0 mg/kg/injection, schedule: Q01DX011 (ip), vehicle: saline with Tween-80, higher = longer survival",102 % of control
same,T/C,"endpoint: median survival time, dose: 8.0 mg/kg/injection, schedule: Q01DX011 (ip), vehicle: saline with Tween-80, higher = longer survival",104 % of control
same,T/C,"endpoint: median survival time, dose: 16.0 mg/kg/injection, schedule: Q01DX011 (ip), vehicle: saline with Tween-80, higher = longer survival",110 % of control

# From PubChem BioAssay AID272 (DTP/NCI, 2004)
